Reference: ChEMBL document CHEMBL1146992, “Identification of potent phenyl imidazoles as opioid receptor agonists” (Bioorg Med Chem Lett, 2006)

Experiments:
[1] = molecular target: Opioid receptors; mu & delta (Rattus norvegicus) (UniProt P33533+P33535); experiment: Selectivity for delta opioid receptor over mu opioid receptor; format: protein assay
[2] = molecular target: Delta-type opioid receptor (Mus musculus, UniProt P32300); experiment: Activity against delta opioid receptor by stimulation of [35S]GTP-gamma-S binding in CHO-hgamma cells; format: functional, cell-based
Sequence of Delta-type opioid receptor (Mus musculus, UniProt P32300) (P32300 whole entry): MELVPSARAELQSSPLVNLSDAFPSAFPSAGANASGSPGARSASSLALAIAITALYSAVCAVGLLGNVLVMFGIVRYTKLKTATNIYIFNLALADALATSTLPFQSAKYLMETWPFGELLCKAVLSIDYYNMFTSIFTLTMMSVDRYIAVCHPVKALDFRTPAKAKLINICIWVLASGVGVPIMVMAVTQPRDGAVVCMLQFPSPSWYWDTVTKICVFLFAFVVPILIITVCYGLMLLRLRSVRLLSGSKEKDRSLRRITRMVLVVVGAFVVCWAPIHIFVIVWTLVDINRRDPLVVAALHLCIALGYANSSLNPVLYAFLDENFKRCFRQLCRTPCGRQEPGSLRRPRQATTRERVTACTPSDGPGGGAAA

[3] = molecular target: Mu-type opioid receptor (Cavia porcellus, UniProt P97266); experiment: Activity against mu opioid receptor by stimulation of [35S]GTP-gamma-S binding in CHO-hgamma cells; format: functional, cell-based
Sequence of Mu-type opioid receptor (Cavia porcellus, UniProt P97266) (P97266 whole entry): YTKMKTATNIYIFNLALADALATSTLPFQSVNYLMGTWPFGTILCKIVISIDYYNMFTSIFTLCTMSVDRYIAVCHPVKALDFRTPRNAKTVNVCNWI

[4] = molecular target: Mu-type opioid receptor (Rattus norvegicus, UniProt P33535); experiment: Displacement of [3H]DAMGO from mu opioid receptor in rat brain; format: tissue-based
Sequence of Mu-type opioid receptor (Rattus norvegicus, UniProt P33535) (P33535 whole entry): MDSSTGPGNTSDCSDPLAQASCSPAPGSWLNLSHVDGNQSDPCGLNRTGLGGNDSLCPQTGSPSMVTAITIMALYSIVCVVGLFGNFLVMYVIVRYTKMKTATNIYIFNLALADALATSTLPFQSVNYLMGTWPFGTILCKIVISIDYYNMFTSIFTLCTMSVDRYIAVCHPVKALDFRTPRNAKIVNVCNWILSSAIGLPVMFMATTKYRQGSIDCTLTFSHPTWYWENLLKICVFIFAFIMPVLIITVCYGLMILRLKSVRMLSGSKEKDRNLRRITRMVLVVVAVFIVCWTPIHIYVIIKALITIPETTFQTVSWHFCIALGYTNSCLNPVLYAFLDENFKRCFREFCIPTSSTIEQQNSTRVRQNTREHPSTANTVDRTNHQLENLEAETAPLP

[5] = molecular target: Delta-type opioid receptor (Rattus norvegicus, UniProt P33533); experiment: Displacement of [3H]DPDPE from delta opioid receptor in rat brain; format: tissue-based
Sequence of Delta-type opioid receptor (Rattus norvegicus, UniProt P33533) (P33533 whole entry): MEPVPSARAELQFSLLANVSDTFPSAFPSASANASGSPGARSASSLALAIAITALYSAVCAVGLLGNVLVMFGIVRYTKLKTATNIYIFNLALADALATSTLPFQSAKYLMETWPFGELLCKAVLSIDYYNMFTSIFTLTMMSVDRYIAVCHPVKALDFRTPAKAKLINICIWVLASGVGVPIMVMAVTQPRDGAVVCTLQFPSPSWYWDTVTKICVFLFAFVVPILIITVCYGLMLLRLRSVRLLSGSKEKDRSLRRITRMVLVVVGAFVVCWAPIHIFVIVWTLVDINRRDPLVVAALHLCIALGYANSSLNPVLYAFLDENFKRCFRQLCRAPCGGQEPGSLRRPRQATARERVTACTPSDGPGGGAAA

Sequence of Opioid receptors; mu & delta (Rattus norvegicus) (P33533 whole entry, looked up): as the sequence (P33533 whole entry) above
Sequence of Opioid receptors; mu & delta (Rattus norvegicus) (P33535 whole entry, looked up): as the sequence (P33535 whole entry) above

Row | SMILES | Ratio Ki [1] | EC50 [2] [nM] | EC50 [3] [nM] | Ki [4] [nM] | Ki [5] [nM]
1 | CC(=O)Nc1ccc(C[C@H](N)C(=O)N2Cc3ccccc3C[C@H]2c2nc(C)c(-c3ccccc3)[nH]2)cc1 | 6 |  |  |  | 
2 | NC(=O)c1ccc(C[C@H](N)C(=O)N2CCCC[C@H]2c2nc(-c3ccccc3)c[nH]2)cc1 | 0.02 | 730 | 100 | 1.2 | 
3 | Cc1[nH]c([C@@H]2Cc3ccccc3CN2C(=O)[C@@H](N)Cc2ccc(F)cc2)nc1-c1ccccc1 | 19 |  |  |  | 
4 | Cc1[nH]c([C@@H]2Cc3ccccc3CN2C(=O)[C@@H](N)Cc2ccccc2)nc1-c1ccccc1 | 8 |  |  | 1830 | 236
5 | N[C@@H](Cc1ccc(Cl)cc1)C(=O)N1Cc2ccccc2C[C@H]1c1nc(-c2ccccc2)c[nH]1 | 4.6 |  |  |  | 
6 | NC(=O)c1ccc(C[C@H](N)C(=O)N2Cc3ccccc3C[C@H]2c2nc(-c3ccccc3)c[nH]2)cc1 | 18.4 | 3 | 155 | 23 | 1.3
7 | Cc1cc(O)cc(C)c1C[C@H](N)C(=O)N1CCCC[C@H]1c1nc(-c2ccccc2)c[nH]1 | 0.03 | 37 | 2 | 0.05 | 1.9
8 | Cc1cc(O)cc(C)c1C[C@H](N)C(=O)N1Cc2ccccc2C[C@H]1c1nc(-c2ccccc2)c[nH]1 | 3.2 | 0.9 | 27 | 0.3 | 0.1
9 | N[C@@H](Cc1ccc(C(=O)O)cc1)C(=O)N1Cc2ccccc2C[C@H]1c1nc(-c2ccccc2)c[nH]1 | 1.1 |  |  | 5800 | 5200
10 | N[C@@H](Cc1ccc(O)cc1)C(=O)N1CCCC[C@H]1c1nc(-c2ccccc2)c[nH]1 | 0.02 |  |  | 3.8 | 198
11 | Cc1[nH]c([C@@H]2CCCCN2C(=O)[C@@H](N)Cc2ccc(O)cc2)nc1-c1ccccc1 | 0.1 | 500 | 142 |  | 
12 | Cc1cc(O)cc(C)c1C[C@H](N)C(=O)N1Cc2ccccc2C[C@H]1c1nc(C)c(-c2ccccc2)[nH]1 | 3.2 |  |  |  | 
13 | Cc1cc(O)cc(C)c1C[C@H](N)C(=O)N1Cc2ccccc2C[C@H]1c1nc(-c2ccccc2)c(C)[nH]1 |  |  |  | 0.3 | 0.1
14 | N[C@@H](Cc1ccccc1)C(=O)N1CCCC[C@H]1c1nc(-c2ccccc2)c[nH]1 | 0.02 |  |  | 18 | 1130
15 | CC(=O)c1ccc(C[C@H](N)C(=O)N2Cc3ccccc3C[C@H]2c2nc(-c3ccccc3)c[nH]2)cc1 | 14 |  |  |  | 30
16 | Cc1[nH]c([C@@H]2Cc3ccccc3CN2C(=O)[C@@H](N)Cc2ccc(N)cc2)nc1-c1ccccc1 | 9 |  |  |  | 
17 | Cc1[nH]c([C@@H]2Cc3ccccc3CN2C(=O)[C@@H](N)Cc2ccc(O)cc2)nc1-c1ccccc1 | 75 |  |  |  | 
18 | N[C@@H](Cc1ccc(S(N)(=O)=O)cc1)C(=O)N1Cc2ccccc2C[C@H]1c1nc(-c2ccccc2)c[nH]1 | 3.4 |  |  |  | 
19 | N[C@@H](Cc1ccccc1)C(=O)N1Cc2ccccc2C[C@H]1c1nc(-c2ccccc2)c[nH]1 | 1.7 |  |  | 443 | 266
20 | COc1ccc(C[C@H](N)C(=O)N2Cc3ccccc3C[C@H]2c2nc(C)c(-c3ccccc3)[nH]2)cc1 | 6.4 |  |  |  | 
21 | Cc1[nH]c([C@@H]2Cc3ccccc3CN2C(=O)[C@@H](N)Cc2ccc(C#N)cc2)nc1-c1ccccc1 | 1.8 |  |  | 1340 | 752
22 | N[C@@H](Cc1ccc(O)cc1)C(=O)N1Cc2ccccc2C[C@H]1c1nc(-c2ccccc2)c[nH]1 | 63 | 19 |  |  | 
23 | CS(=O)(=O)Nc1ccc(C[C@H](N)C(=O)N2Cc3ccccc3C[C@H]2c2nc(-c3ccccc3)c[nH]2)cc1 | 1 |  |  | 356 | 342
24 | Cc1cc(C(N)=O)cc(C)c1C[C@H](N)C(=O)N1Cc2ccccc2C[C@H]1c1nc(-c2ccccc2)c[nH]1 |  | 22 | 161 | 1.4 | 
25 | Cc1cc(C(N)=O)cc(C)c1C[C@H](N)C(=O)N1CCCC[C@H]1c1nc(-c2ccccc2)c[nH]1 |  | 135 | 9 | 0.13 | 14
26 | N[C@@H](Cc1ccc(CO)cc1)C(=O)N1Cc2ccccc2C[C@H]1c1nc(-c2ccccc2)c[nH]1 | 2 |  |  | 912 | 466
